The values that follow come from patent US20250195530A1, “POLQ INHIBITORS” (ASTRAZENECA AB, priority 2022, published 2025).

The test system of experiment [1] is DLD-1 BRCA2−/− cells. Nature of the experiment: Homologous recombination synthetic lethal inhibition of proliferation, DLD-1 BRCA2-/- (Cell Titre Glo 3D). Format: cell-based. To be noted: Homo sapiens, DLD-1, 288 h, DLD-1 BRCA2−/− cells, 12 days; read-out: POLQ PD Prolif Lumin BRCA2 −/− mean pIC50 (converted). The essentials: (§1)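 Read-out: CellTiter-Glo 3D luminescence, day 7 for wt DLD-1, day 12 for BRCA2−/−, about 8-9 population doublings each. Seeding 1,500 or 3,000 cells/mL respectively. Dose range 10 μM–0.51 nM, 3-fold, 10 points, with re-dosing on day 6. IC50 from curve fit.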

In experiment [2] the test system is DLD-1 cells. Kind of experiment: Inhibition of proliferation, DLD-1 BRCA2 wt control (Cell Titre Glo 3D). Format: cell-based. To be noted: Homo sapiens, DLD-1, 168 h, DLD-1 BRCA2 wt cells, 7 days; read-out: POLQ PD Prolif Lumin DLD1 mean pIC50 (converted). The essentials:
as §1

In the case of `Cc1scnc1Cn1c(-c2ccc(OCCN3CCNCC3)cc2Cl)nc2c(OC3(C)CC3)ncnc21` [Example K12, 4-((8-(2-chloro-4-(2-(piperazin-1-yl)ethoxy)phenyl)-6-(1-methylcyclopropoxy)-9H-purin-9-yl)methyl)-5-methylthiazole], the IC50 in experiment [1] was 1580 nM; in experiment [2] it was over 10000 nM.

On to `Cc1ccnc(Cn2c(-c3ccc(OCCN4CCNCC4)cc3Cl)nc3c(OC4(C)CC4)ncnc32)c1` [Example L2, 8-(2-chloro-4-(2-(piperazin-1-yl)ethoxy)phenyl)-6-(1-methylcyclopropoxy)-9-((4-methylpyridin-2-yl)methyl)-9H-purine], for which the IC50 is 398 nM in experiment [1] and over 10000 nM in experiment [2].

With `Cc1cnc(Cn2c(-c3ccc(OCCN4CCNCC4)cc3Cl)nc3c(OC4(C)CC4)ncnc32)s1` [Example L3, 2-((8-(2-chloro-4-(2-(piperazin-1-yl)ethoxy)phenyl)-6-(1-methylcyclopropoxy)-9H-purin-9-yl)methyl)-5-methylthiazole], the IC50 in experiment [1] was 398 nM; in experiment [2] it was over 10000 nM.

Regarding `CC1(Oc2ncnc3c2nc(-c2ccc(OCCN4CCNCC4)cc2Cl)n3Cc2cc(C#N)ccn2)CC1` [Example L4, 2-((8-(2-chloro-4-(2-(piperazin-1-yl)ethoxy)phenyl)-6-(1-methylcyclopropoxy)-9H-purin-9-yl)methyl)isonicotinonitrile], the IC50 in experiment [1] was 1000 nM; in experiment [2], over 10000 nM.

On to `COc1ccnc(Cn2c(-c3ccc(OCCN4CCNCC4)cc3Cl)nc3c(OC4(C)CC4)ncnc32)c1` [Example L5, 8-(2-chloro-4-(2-(piperazin-1-yl)ethoxy)phenyl)-9-((4-methoxypyridin-2-yl)methyl)-6-(1-methylcyclopropoxy)-9H-purine], for which the IC50 is 1580 nM in experiment [1] and over 10000 nM in experiment [2].

Consider `CC1(Oc2ncnc3c2nc(-c2ccc(OCCN4CCNCC4)cc2Cl)n3Cc2ncc(Cl)s2)CC1` [Example L6, 5-chloro-2-((8-(2-chloro-4-(2-(piperazin-1-yl)ethoxy)phenyl)-6-(1-methylcyclopropoxy)-9H-purin-9-yl)methyl)thiazole], for which the IC50 in experiment [1] is 398 nM; in experiment [2] it was over 10000 nM.

Consider `CC1(Oc2ncnc3c2nc(-c2ccc(OCCN4CCNCC4)cc2Cl)n3Cc2csc(Cl)n2)CC1` [Example L7, 2-chloro-4-((8-(2-chloro-4-(2-(piperazin-1-yl)ethoxy)phenyl)-6-(1-methylcyclopropoxy)-9H-purin-9-yl)methyl)thiazole], for which the figures for the IC50 in experiment [1] and in experiment [2] were 1580 nM and over 10000 nM, respectively.

As to `Cc1ccc(Cn2c(-c3ccc(OCCN4CCNCC4)cc3Cl)nc3c(OC4(C)CC4)ncnc32)nc1` [Example L8, 8-(2-chloro-4-(2-(piperazin-1-yl)ethoxy)phenyl)-6-(1-methylcyclopropoxy)-9-((5-methylpyridin-2-yl)methyl)-9H-purine], the IC50 in experiment [1] is 2000 nM; in experiment [2], over 10000 nM.

For the molecule `Cc1cccnc1Cn1c(-c2ccc(OCCN3CCNCC3)cc2Cl)nc2c(OC3(C)CC3)ncnc21` [Example L9, 8-(2-chloro-4-(2-(piperazin-1-yl)ethoxy)phenyl)-6-(1-methylcyclopropoxy)-9-((3-methylpyridin-2-yl)methyl)-9H-purine], the IC50 in experiment [1] is 3160 nM; in experiment [2], over 10000 nM.

As for `COc1cccnc1Cn1c(-c2ccc(OCCN3CCNCC3)cc2Cl)nc2c(OC3(C)CC3)ncnc21` [Example L10, 8-(2-chloro-4-(2-(piperazin-1-yl)ethoxy)phenyl)-9-((3-methoxypyridin-2-yl)methyl)-6-(1-methylcyclopropoxy)-9H-purine], the IC50 in experiment [1] is 3160 nM; in experiment [2] it was over 10000 nM.

For the molecule `CC1(Oc2ncnc3c2nc(-c2ccc(N4CC(N)C4)cc2Cl)n3Cc2ccccc2)CC1` [Example M1, 1-(4-(9-benzyl-6-(1-methylcyclopropoxy)-9H-purin-8-yl)-3-chlorophenyl)azetidin-3-amine], the IC50 in experiment [1] was 501 nM; in experiment [2], over 10000 nM.

Consider `CC1(Oc2ncnc3c2nc(-c2ccc(N4CCC(N)CC4)cc2Cl)n3Cc2ccccc2)CC1` [Example M2, 1-(4-(9-benzyl-6-(1-methylcyclopropoxy)-9H-purin-8-yl)-3-chlorophenyl)piperidin-4-amine], for which the IC50 in experiment [1] is 316 nM; in experiment [2], 5010 nM.

Take `CC1(Oc2ncnc3c2nc(-c2ccc(N4CCNC(=O)C4)cc2Cl)n3Cc2ccccc2)CC1` [Example M3, 4-(4-(9-benzyl-6-(1-methylcyclopropoxy)-9H-purin-8-yl)-3-chlorophenyl)piperazin-2-one]: the IC50 in experiment [1] was 501 nM; in experiment [2], 7940 nM.

Turning to `CC1(Oc2ncnc3c2nc(-c2ccc(/C=C/C(=O)O)cc2Cl)n3Cc2ccccc2)CC1` [Example M4, (E)-3-(4-(9-benzyl-6-(1-methylcyclopropoxy)-9H-purin-8-yl)-3-chlorophenyl)acrylic acid], the results for the IC50 in experiment [1] and in experiment [2] were 631 nM and over 10000 nM, respectively.

`CC1(Oc2ncnc3c2nc(-c2ccc(OCCN4CCNCC4=O)cc2Cl)n3Cc2ccccc2)CC1` [Example M5, 1-(2-(4-(9-benzyl-6-(1-methylcyclopropoxy)-9H-purin-8-yl)-3-chlorophenoxy)ethyl)piperazin-2-one]: the IC50 in experiment [1] was 100 nM; in experiment [2], over 10000 nM.

Regarding `CN(C)C(=O)c1ccc(-c2nc3c(OC4(C)CC4)ncnc3n2Cc2ccccc2)c(Cl)c1` [Example N1, 4-(9-benzyl-6-(1-methylcyclopropoxy)-9H-purin-8-yl)-3-chloro-N,N-dimethylbenzamide], the results for the IC50 in experiment [1] and in experiment [2] were 200 nM and over 10000 nM, respectively.

On to `CNC(=O)c1ccc(-c2nc3c(OC4(C)CC4)ncnc3n2Cc2ccccc2)c(Cl)c1` [Example N2, 4-(9-benzyl-6-(1-methylcyclopropoxy)-9H-purin-8-yl)-3-chloro-N-methylbenzamide], for which the IC50 in experiment [1] is 251 nM; in experiment [2], over 10000 nM.

Consider `CC1(Oc2ncnc3c2nc(-c2ccc(C(=O)N4CCNCC4)cc2Cl)n3Cc2ccccc2)CC1` [Example N3, (4-(9-benzyl-6-(1-methylcyclopropoxy)-9H-purin-8-yl)-3-chlorophenyl)(piperazin-1-yl)methanone], for which the IC50 in experiment [1] was 794 nM; in experiment [2] it was over 10000 nM.

In the case of `CC1(Oc2ncnc3c2nc(-c2ccc(C(N)=O)cc2Cl)n3Cc2ccccc2)CC1` [Example N4, 4-(9-benzyl-6-(1-methylcyclopropoxy)-9H-purin-8-yl)-3-chlorobenzamide], the IC50 in experiment [1] is 200 nM; in experiment [2], over 10000 nM.

With `CC1(Oc2ncnc3c2nc(-c2ccc(CN4CCCC4)cc2Cl)n3Cc2ccccc2)CC1` [Example N5, 9-benzyl-8-(2-chloro-4-(pyrrolidin-1-ylmethyl)phenyl)-6-(1-methylcyclopropoxy)-9H-purine], the IC50 is 100 nM in experiment [1] and 3980 nM in experiment [2].

For `CC1(Oc2ncnc3c2nc(-c2ccc(CN4CCNCC4)cc2Cl)n3Cc2ccccc2)CC1` [Example N6, 9-benzyl-8-(2-chloro-4-(piperazin-1-ylmethyl)phenyl)-6-(1-methylcyclopropoxy)-9H-purine], the IC50 in experiment [1] is 100 nM; in experiment [2] it was 3980 nM.

Regarding `CC1(Oc2ncnc3c2nc(-c2ccc(CN)cc2Cl)n3Cc2ccccc2)CC1` [Example N7, (4-(9-benzyl-6-(1-methylcyclopropoxy)-9H-purin-8-yl)-3-chlorophenyl)methanamine], the IC50 was 631 nM in experiment [1] and 6310 nM in experiment [2].

In the case of `COc1ccc(-c2nc3c(OC4(C)CC4)ncnc3n2Cc2ccccc2)c(Cl)c1` [Example N8, 9-Benzyl-8-(2-chloro-4-methoxyphenyl)-6-(1-methylcyclopropoxy)-9H-purine], the IC50 in experiment [1] is 251 nM; in experiment [2], over 10000 nM.

On to `COc1ncccc1-c1nc2c(OC3(C)CC3)ncnc2n1Cc1ccccc1` [Example N9, 9-benzyl-8-(2-methoxypyridin-3-yl)-6-(1-methylcyclopropoxy)-9H-purine], for which the IC50 in experiment [1] is 1260 nM; in experiment [2], over 10000 nM.

Take `CC1(Oc2cccc3c2nc(-c2ccc(OCCN4CCNCC4)cc2Cl)n3Cc2ccccn2)CCC1` [Example P1, 2-(2-chloro-4-(2-(piperazin-1-yl)ethoxy)phenyl)-4-(1-methylcyclobutoxy)-1-(pyridin-2-ylmethyl)-1H-benzo[d]imidazole]: the IC50 in experiment [1] is 1260 nM; in experiment [2], over 10000 nM.

Turning to `CC1(Oc2cccc3c2nc(-c2ccc(OCCN4CCNCC4)cc2Cl)n3Cc2ccccc2)CCC1` [Example P2, 1-benzyl-2-(2-chloro-4-(2-(piperazin-1-yl)ethoxy)phenyl)-4-(1-methylcyclobutoxy)-1H-benzo[d]imidazole], the IC50 in experiment [1] was 794 nM; in experiment [2], 2510 nM.

In the case of `CC1(Oc2ccnc3c2nc(-c2ccc(OCCN4CCNCC4)cc2Cl)n3Cc2ccccn2)CCC1` [Example P3, 2-(2-chloro-4-(2-(piperazin-1-yl)ethoxy)phenyl)-7-(1-methylcyclobutoxy)-3-(pyridin-2-ylmethyl)-3H-imidazo[4,5-b]pyridine], the IC50 is 2000 nM in experiment [1] and over 10000 nM in experiment [2].

For the molecule `CC1(Oc2ccnc3c2nc(-c2ccc(OCCN4CCNCC4)cc2Cl)n3Cc2ccccc2)CCC1` [Example P4, 3-benzyl-2-(2-chloro-4-(2-(piperazin-1-yl)ethoxy)phenyl)-7-(1-methylcyclobutoxy)-3H-imidazo[4,5-b]pyridine], the IC50 in experiment [1] is 316 nM; in experiment [2], 1260 nM.

As to `C#CC1(Oc2ncnc3c2nc(-c2ccc(OCCN4CCNCC4)cc2Cl)n3Cc2ccccc2)CC1` [Example Q1, 9-benzyl-8-(2-chloro-4-(2-(piperazin-1-yl)ethoxy)phenyl)-6-(1-ethynylcyclopropoxy)-9H-purine], the IC50 in experiment [1] is 316 nM; in experiment [2] it was over 10000 nM.
